Data published in patent US10513521B2, “Compositions and methods for inhibiting BMP” (The Brigham and Women's Hospital, Inc., priority 2014, dated 2019).
Residue numbers refer to the chain shown, from its start.

Columns and labels:
ALK2 [1] = biological target: T1, ALK2 (Mus musculus, UniProt P37172); assay: HTRF pSMAD1 cell-based ALK2 assay (C2C12 cells, BMP6 as agonist); conditions: cell-based assay, BMP6; read-out: Cell IC50 BMP6
T1 construct: The C2C12 cell line was selected for the measurement of ALK2 activity using BMP6 as the agonist; host or cells: C2C12
T1 sequence (P37172 21-509): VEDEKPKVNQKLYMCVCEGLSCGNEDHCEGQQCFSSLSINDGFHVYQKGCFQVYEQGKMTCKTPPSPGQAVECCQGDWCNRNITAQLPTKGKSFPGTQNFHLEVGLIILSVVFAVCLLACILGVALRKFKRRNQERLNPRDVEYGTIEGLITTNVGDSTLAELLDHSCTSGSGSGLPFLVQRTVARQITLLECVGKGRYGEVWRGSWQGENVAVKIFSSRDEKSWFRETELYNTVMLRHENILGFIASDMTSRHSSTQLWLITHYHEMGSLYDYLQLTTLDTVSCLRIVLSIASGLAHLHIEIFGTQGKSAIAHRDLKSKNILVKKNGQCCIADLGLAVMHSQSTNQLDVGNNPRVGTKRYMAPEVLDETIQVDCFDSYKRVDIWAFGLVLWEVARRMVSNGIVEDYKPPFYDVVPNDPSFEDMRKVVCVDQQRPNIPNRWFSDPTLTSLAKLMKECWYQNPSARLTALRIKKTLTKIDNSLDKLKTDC
Method in brief: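 Phospho-SMAD1 HTRF readout, detection incubated overnight at room temperature. Before that: starved cells in 0.1% FBS for 4 h, 30 min compound pretreatment, then 30 min agonist, BMP6 on C2C12 or BMP9 on BAOEC.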

[2] = Cell-based assay, TGFb1 (Cell IC50)
ALK1 = ALK1 (Homo sapiens, UniProt P37023); assay: TR-FRET enzymatic ALK kinase assay, ALK1
ALK1, sequence (P37023 22-503): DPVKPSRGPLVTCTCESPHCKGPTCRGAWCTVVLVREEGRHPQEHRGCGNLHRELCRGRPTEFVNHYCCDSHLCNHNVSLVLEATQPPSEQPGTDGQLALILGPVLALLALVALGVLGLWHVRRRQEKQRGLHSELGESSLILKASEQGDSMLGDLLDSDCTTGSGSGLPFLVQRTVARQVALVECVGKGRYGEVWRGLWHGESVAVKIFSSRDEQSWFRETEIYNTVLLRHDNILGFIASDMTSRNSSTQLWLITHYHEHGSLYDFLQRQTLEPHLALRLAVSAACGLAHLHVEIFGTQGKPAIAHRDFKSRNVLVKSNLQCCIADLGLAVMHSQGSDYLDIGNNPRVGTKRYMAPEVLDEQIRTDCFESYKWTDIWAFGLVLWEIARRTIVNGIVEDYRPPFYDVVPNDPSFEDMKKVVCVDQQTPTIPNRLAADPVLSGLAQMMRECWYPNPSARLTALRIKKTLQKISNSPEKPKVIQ
Experimental: (§1) Briefly, the ALKs enzymatic assay was initiated by dispense 2.5 μl enzyme in 1× kinase reaction buffer. The assay plate was then added with compounds followed by incubation at room temperature for 10 minutes. Then 2.5 μl/well substrate was added.

ALK2 [3] = biological target: T2, ALK2 (Homo sapiens, UniProt Q04771); assay: TR-FRET enzymatic ALK kinase assay, ALK2
T2 sequence (Q04771 21-509): T1 sequence (P37172 21-509) with V1M, Q10P, I121L, E162D, S310P
Experimental: as §1

ALK3 = ALK3 (Homo sapiens, UniProt P36894); assay: TR-FRET enzymatic ALK kinase assay, ALK3
ALK3, sequence (P36894 24-532): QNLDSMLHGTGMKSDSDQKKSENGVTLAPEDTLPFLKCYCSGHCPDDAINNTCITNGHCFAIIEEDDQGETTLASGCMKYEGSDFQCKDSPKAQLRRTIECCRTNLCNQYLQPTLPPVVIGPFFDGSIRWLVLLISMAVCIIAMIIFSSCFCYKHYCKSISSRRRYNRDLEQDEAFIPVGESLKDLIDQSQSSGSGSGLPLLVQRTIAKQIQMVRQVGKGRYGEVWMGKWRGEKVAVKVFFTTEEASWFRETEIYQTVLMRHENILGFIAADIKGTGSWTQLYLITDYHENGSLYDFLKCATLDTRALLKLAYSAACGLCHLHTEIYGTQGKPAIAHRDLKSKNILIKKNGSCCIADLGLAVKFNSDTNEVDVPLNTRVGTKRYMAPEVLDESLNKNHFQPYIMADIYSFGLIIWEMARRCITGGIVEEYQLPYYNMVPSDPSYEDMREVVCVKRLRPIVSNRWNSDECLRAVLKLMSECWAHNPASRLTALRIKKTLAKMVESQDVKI
Experimental: as §1

ALK6 = ALK6 (Homo sapiens, UniProt O00238); assay: TR-FRET enzymatic ALK kinase assay, ALK6
ALK6, sequence (O00238 14-502): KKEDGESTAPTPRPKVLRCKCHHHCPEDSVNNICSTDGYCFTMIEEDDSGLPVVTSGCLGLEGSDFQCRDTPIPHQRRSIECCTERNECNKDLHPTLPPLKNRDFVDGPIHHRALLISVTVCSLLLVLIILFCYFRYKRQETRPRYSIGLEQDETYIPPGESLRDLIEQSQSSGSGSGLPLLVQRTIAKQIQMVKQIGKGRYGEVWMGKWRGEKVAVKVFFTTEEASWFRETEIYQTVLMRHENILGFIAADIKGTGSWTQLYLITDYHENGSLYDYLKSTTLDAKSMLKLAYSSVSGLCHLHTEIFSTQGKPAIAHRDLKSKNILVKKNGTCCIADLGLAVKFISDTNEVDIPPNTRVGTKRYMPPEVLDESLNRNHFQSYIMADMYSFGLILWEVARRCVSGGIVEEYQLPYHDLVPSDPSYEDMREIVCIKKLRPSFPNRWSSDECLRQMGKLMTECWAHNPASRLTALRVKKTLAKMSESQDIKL
Experimental: as §1

ALK4 = biological target: T3, ALK4 (Homo sapiens, UniProt P36896); assay: TR-FRET enzymatic ALK kinase assay, ALK4
T3 sequence (P36896 24-505): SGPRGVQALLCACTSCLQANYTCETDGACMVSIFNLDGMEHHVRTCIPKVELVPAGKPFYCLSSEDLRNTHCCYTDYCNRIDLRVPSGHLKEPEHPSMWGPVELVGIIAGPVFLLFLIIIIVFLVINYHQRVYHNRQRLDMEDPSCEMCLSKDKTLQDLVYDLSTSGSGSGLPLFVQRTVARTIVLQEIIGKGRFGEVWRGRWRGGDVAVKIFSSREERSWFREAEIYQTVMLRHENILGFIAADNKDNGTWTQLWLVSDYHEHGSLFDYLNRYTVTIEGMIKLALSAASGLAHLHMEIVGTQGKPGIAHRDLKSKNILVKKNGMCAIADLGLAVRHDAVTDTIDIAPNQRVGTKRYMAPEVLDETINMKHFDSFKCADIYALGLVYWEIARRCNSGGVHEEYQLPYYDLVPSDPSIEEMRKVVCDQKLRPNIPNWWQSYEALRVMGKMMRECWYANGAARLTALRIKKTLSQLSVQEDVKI
Experimental: as §1

ALK5 = biological target: T4, ALK5 (Homo sapiens, UniProt P36897); assay: TR-FRET enzymatic ALK kinase assay, ALK5
T4 sequence (P36897 34-503): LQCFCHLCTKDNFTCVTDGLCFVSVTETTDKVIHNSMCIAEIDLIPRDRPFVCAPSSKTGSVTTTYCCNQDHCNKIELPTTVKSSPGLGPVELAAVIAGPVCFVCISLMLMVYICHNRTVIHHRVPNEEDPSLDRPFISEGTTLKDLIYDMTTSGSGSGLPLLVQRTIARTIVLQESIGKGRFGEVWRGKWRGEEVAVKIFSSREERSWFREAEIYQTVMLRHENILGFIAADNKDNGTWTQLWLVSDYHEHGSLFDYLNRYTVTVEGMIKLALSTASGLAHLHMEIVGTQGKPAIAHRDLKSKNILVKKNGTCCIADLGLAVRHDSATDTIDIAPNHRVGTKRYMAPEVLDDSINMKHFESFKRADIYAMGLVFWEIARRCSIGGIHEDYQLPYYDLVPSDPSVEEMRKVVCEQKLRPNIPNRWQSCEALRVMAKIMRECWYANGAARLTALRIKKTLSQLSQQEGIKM
Experimental: Six ALK kinase enzyme assays were developed for determination of compound activities on ALK1, ALK2, ALK3, ALK4, ALK5 and ALK6.
as §1

SMILES	IC50 (ALK2 [1]) [nM]	IC50 [2] [nM]	IC50 (ALK1) [nM]	IC50 (ALK2 [3]) [nM]	IC50 (ALK3) [nM]	IC50 (ALK6) [nM]	IC50 (ALK4) [nM]	IC50 (ALK5) [nM]
O=C(O)c1ccc(-c2cnn3cc(-c4ccc(N5CCNCC5)cc4)cnc23)c2ccccc12 [Compound 1, 4-(6-(4-(piperazin-1-yl)phenyl)pyrazolo[1,5-a]pyrimidin-3-yl)-1-naphthoic acid]	8660	100000	186	37	984	1740		
NC(=O)c1ccc(-c2cnn3cc(-c4ccc(N5CCNCC5)cc4)cnc23)c2ccccc12 [Compound 2, 4-(6-(4-(piperazin-1-yl)phenyl)pyrazolo[1,5-a]pyrimidin-3-yl)-1-naphthamide]	28	331	18	4.5	147	2070	11200	56600
O=C(O)c1cccc2c(-c3cnn4cc(-c5ccc(N6CCNCC6)cc5)cnc34)cccc12 [Compound 5, 5-(6-(4-(piperazin-1-yl)phenyl)pyrazolo[1,5-a]pyrimidin-3-yl)-1-naphthoic acid]	100000	100000	45	10	17	17		
NC(=O)c1cccc2c(-c3cnn4cc(-c5ccc(N6CCNCC6)cc5)cnc34)cccc12 [Compound 6, 5-(6-(4-(piperazin-1-yl)phenyl)pyrazolo[1,5-a]pyrimidin-3-yl)-1-naphthamide]	21	764	31	7	30	105	2690	11200
CNC(=O)c1cccc2c(-c3cnn4cc(-c5ccc(N6CCNCC6)cc5)cnc34)cccc12 [Compound 7, N-methyl-5-(6-(4-(piperazin-1-yl)phenyl)pyrazolo[1,5-a]pyrimidin-3-yl)-1-naphthamide]	283	2930	1590	226	598	334	30900	
CN(C)C(=O)c1cccc2c(-c3cnn4cc(-c5ccc(N6CCNCC6)cc5)cnc34)cccc12 [Compound 8, N,N-dimethyl-5-(6-(4-(piperazin-1-yl)phenyl)pyrazolo[1,5-a]pyrimidin-3-yl)-1-naphthamide]	2070	5540	8080	6560	10800	20700		

Further lines, results first:

IC50 (ALK2 [1]) [nM]	IC50 [2] [nM]	IC50 (ALK1) [nM]	IC50 (ALK2 [3]) [nM]	IC50 (ALK3) [nM]	IC50 (ALK6) [nM]	IC50 (ALK4) [nM]	IC50 (ALK5) [nM]	SMILES
11	200	4	6	42	225	920	5430	C[C@@H]1CNC[C@H](C)N1c1ccc(-c2cnc3c(-c4ccc(C(N)=O)c5ccccc45)cnn3c2)cc1 [Compound 9, 4-(6-(4-((2S,6R)-2,6-dimethylpiperazin-1-yl)phenyl)pyrazolo[1,5-a]pyrimidin-3-yl)-1-naphthamide]
55	645	30	7	112	2060	2990	7020	NC(=O)c1ccc(-c2cnn3cc(-c4ccc(N5C[C@@H]6C[C@H]5CN6)cc4)cnc23)c2ccccc12 [Compound 11, 4-(6-(4-((1 S,4S)-2,5-diazabicyclo[2.2.1]heptan-2-yl)phenyl)pyrazolo[1,5-a]pyrimidin-3-yl)-1-naphthamide]
4200	44100	3060	916	17600	16900		15600	N=C(N)c1ccc(-c2cnn3cc(-c4ccc(N5CCNCC5)cc4)cnc23)cc1 [Compound 14, 4-(6-(4-(piperazin-1-yl)phenyl)pyrazolo[1,5-a]pyrimidin-3-yl)benzimidamide]
890	13500	405	84	4930	74800	73900		N=C(N)c1ccc(-c2cnn3cc(-c4ccc(N5CCNCC5)cc4)cnc23)c2ccccc12 [Compound 16, 4-(6-(4-(piperazin-1-yl)phenyl)pyrazolo[1,5-a]pyrimidin-3-yl)-1-naphthimidamide]
